A word on the IC50: it is the concentration that gives 50% inhibition. Higher therefore signals weaker potency in that assay.

The target of one assay is hepatic lipase (HL) (Homo sapiens (Human), UniProt P11150). In words: HL assay: hepatic lipase activity with fluorescent substrate A10070 in DMPG vesicles. The class given is biochemical. In short, it runs like this: (§1)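 Vesicles prepared: A10070 dried with DMPG, resuspended in HEPES pH 8.0/NaCl/EDTA, sonicated on ice. Enzyme incubated with compound 30 min at 37° C. Reaction started with 1:10 diluted vesicles. Fluorescence (490/530 nm) followed 60 min; slope from 300–900 secs gives rate.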

Another assay deals with Endothelial lipase (EL) (Homo sapiens (Human), UniProt Q9Y5X9). Description: EL assay: endothelial lipase activity with fluorescent substrate A10070 in DMPG vesicles. It counts as biochemical. In short, it runs like this: as §1
Endothelial lipase (EL), sequence (Q9Y5X9 21-500): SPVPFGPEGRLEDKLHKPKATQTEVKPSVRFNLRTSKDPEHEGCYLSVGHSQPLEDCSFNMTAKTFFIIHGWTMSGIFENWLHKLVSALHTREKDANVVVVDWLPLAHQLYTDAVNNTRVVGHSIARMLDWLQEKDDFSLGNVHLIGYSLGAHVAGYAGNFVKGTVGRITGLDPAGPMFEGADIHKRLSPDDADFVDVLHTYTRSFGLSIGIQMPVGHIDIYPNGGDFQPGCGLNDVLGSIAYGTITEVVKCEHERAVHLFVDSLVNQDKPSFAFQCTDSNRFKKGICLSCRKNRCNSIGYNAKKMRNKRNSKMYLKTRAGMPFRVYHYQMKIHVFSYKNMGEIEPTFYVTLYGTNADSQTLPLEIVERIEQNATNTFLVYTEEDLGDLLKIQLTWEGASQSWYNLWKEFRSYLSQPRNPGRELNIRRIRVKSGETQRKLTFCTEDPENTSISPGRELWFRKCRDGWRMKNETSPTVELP

hepatic lipase (HL), sequence (P11150 23-499, species assumed): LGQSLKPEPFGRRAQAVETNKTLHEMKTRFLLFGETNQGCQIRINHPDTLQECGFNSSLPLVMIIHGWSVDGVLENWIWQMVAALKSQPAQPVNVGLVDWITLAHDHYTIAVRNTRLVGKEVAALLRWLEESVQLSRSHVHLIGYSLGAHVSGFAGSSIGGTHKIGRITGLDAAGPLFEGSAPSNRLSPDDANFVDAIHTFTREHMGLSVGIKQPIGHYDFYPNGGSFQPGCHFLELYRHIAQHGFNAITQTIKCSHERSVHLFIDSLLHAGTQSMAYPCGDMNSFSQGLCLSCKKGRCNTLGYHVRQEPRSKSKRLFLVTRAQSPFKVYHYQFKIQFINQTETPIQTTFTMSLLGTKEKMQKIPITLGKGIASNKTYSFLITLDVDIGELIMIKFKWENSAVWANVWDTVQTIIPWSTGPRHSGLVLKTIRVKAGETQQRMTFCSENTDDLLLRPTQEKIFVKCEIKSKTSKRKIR

In the case of `COC1CN(C(=O)c2ccc(-c3ccc4nc(C(C(=O)NCCS(N)(=O)=O)S(=O)(=O)CCC(F)(F)F)sc4c3)cc2)C1` (centres unmarked) [Example B301, 2-{6-[4-(3-methoxy-azetidine-1-carbonyl)phen-yl]-1,3-benzothiazol-2-yl}-N-(2-sulfamoyl-ethyl)-2-(3,3,3-trifluoro-propanesulfonyl)acetamide], the results for the IC50 at hepatic lipase (HL) and on Endothelial lipase (EL) were 113 nM and 7.8 nM, respectively.
Taken in the same sequence, the figures for `COC1CN(C(=O)c2ccc(-c3ccc4nc(C(C(=O)NCCS(N)(=O)=O)S(=O)(=O)Cc5ccc(F)cc5)sc4c3)cc2)C1` (centres unmarked) [Example B302, 2-[(4-fluorophen-yl)methanesulfonyl]-2-{6-[4-(3-methoxyazetidine-1-carbonyl)phenyl]-1,3-benzothiazol-2-yl}-N-(2-sulfamoylethyl)acetamide] were 52 nM and 7.2 nM.
On to `NS(=O)(=O)CCNC(=O)C(c1nc2ccc(-c3ccc4c(c3)CNC4=O)cc2s1)S(=O)(=O)Cc1ccc(OC(F)(F)F)cc1` (centres unmarked) [Example B303, 2-[6-(1-oxo-2,3-dihydro-1H-isoindol-5-yl)-1,3-benzothiazol-2-yl]-N-(2-sulfamoylethyl)-2-{[4-(trifluoromethoxy)phen-yl]methanesulfonyl)a-cetamide], for which the IC50 on hepatic lipase (HL) worked out at 51.2 nM; against Endothelial lipase (EL), 2.5 nM.
Taken in the same sequence, the figures for `CO[C@H]1CCN(C(=O)c2ccc(-c3ccc4nc(C(C(=O)NCCS(N)(=O)=O)S(=O)(=O)CCC(F)(F)F)sc4c3)cc2)C1` (stereo partly drawn) [Example B304, 2-(6-{4-[(3S)-3-methoxy-pyrrolidine-1-carbonyl]phen-yl}-1,3-benzothiazol-2-yl)-N-(2-sulfamoyl-ethyl)-2-(3,3,3-trifluoro-propanesulfonyl)acetamide] were 16.6 nM and 0.7 nM.
Taken in the same sequence, the figures for `CS(=O)(=O)C(C(=O)NCCS(N)(=O)=O)c1nc2ccc(-c3ccccc3F)cc2s1` (centres unmarked) [Example B305, 2-[6-(2-fluorophenyl)-1,3-benzothiazol-2-yl]-2-methanesulfonyl-N-(2-sulfamoylethyl)acetamide] were 1 nM and 3 nM.
Regarding `COCCS(=O)(=O)C(C(=O)NCCS(N)(=O)=O)c1nc2ccc(-c3ccc(C(=O)N4CC[C@H](OC)C4)cc3)cc2s1` (stereo partly drawn) [Example B306, 2-(2-methoxyethane-sulfonyl)-2-(6-{4-[(3S)-3-methoxypyrrolidine-1-carbonyl]phenyl}-1,3-benzothiazol-2-yl)-N-(2-sulfamoylethyl)acetamide], the values for the IC50 against hepatic lipase (HL) and on Endothelial lipase (EL) were 149 nM and 3.8 nM, respectively.
Taken in the same sequence, the figures for `COCCS(=O)(=O)C(C(=O)NCCS(N)(=O)=O)c1nc2cc(-c3ccc(F)nc3)ccc2s1` (centres unmarked) [Example B308, 2-[5-(6-fluoropyridin-3-yl)-1,3-benzothiazol-2-yl]-2-(2-methoxyethane-sulfonyl)-N-(2-sulfamoylethyl)acetamide] were 194 nM and 1.3 nM.
Taken in the same sequence, the figures for `NS(=O)(=O)CCNC(=O)C(c1nc2cc(-c3ccc(F)nc3)ccc2s1)S(=O)(=O)Cc1ccc(OC(F)(F)F)cc1` (centres unmarked) [Example B309, 2-[5-(6-fluoropyridin-3-yl)-1,3-benzothiazol-2-yl]-N-(2-sulfamoylethyl)-2-{[4-(trifluoromethoxy)phen-yl]methanesulfonyl}a-cetamide] were 67 nM and 0.5 nM.
Taken in the same sequence, the figures for `NS(=O)(=O)CCNC(=O)C(c1nc2cc(-c3ccc(F)nc3)ccc2s1)S(=O)(=O)Cc1ccc(F)cc1` (centres unmarked) [Example B310, 2-[(4-fluorophenyl)meth-anesulfonyl]-2-[5-(6-fluoropyridin-3-yl)-1,3-benzothiazol-2-yl]-N-(2-sulfamoylethyl)acetamide] were 51.4 nM and 1 nM.
As to `NS(=O)(=O)CCNC(=O)C(c1nc2cc(-c3ccc(F)nc3)ccc2s1)S(=O)(=O)CCC(F)(F)F` (centres unmarked) [Example B311, 2-[5-(6-fluoropyridin-3-yl)-1,3-benzothiazol-2-yl]-N-(2-sulfamoylethyl)-2-(3,3,3-trifluoropropane-sulfonyl)acetamide], the IC50 was 24.2 nM against hepatic lipase (HL) and 3.1 nM at Endothelial lipase (EL).
